Results reported in US7276531B2, “G-lactam derivatives as prostaglandin agonists” (Applied Research Systems ARS Holding N.V., priority 2003, dated 2007).

Tested on: Dextran Sodium Sulfate-induced colitis
Assay: In vivo inhibition of Dextran Sodium Sulfate-induced colitis
Conditions: 0.1 mg/kg p.o. daily at days 3, 4, 5 and 6, DSS 4% mice
Source text: The anti-inflammatory activity of compounds of the invention in colitis can be assayed as follows.
Within 6-10 days after ingesting Dextran Sodium Sulfate (DSS) mice show sign of diarrhea, rectal bleeding and weight loss and colonic mucosal lesions include multiple erosion, ulceration, and marked inflammatory cell infiltration.
Ulcerative colitis (UC) was induced in female mice (Balb/c, 20-22 g, Elevage Janvier) by Dextran Sodium Sulfate (DSS 4%) administered in drinking water. The mice had free access to DSS during 5 days.
The compounds of the invention were solubilized in […] and administered by gavage at days 3, 4, 5 and 6 after the induction of the UC.
The “treated group” wherein the animals have free access to DDS and are treated each day with compounds of the invention.
The “Dextran 4%” group wherein the animals have free access to DDS 4% and 0.5% CMC/O0.25% tween (vehicle) and are not treated.
• The body weight was determined daily. • The severity of the UC was assessed by a clinical score estimating the constituency of the stool (0=firm, 1=loose, 2=diarrhea) and the presence of blood (0=no blood, 1=occult blood, 2=gross rectal bleeding). • Seven days after the induction of the disease, the animals were sacrificed. The length and the weight of the colon were determined and the ratio Length/Weight/100 g body weight was calculated.
The percentages of inhibition of weight loss, of clinical scores and of increase in the ratio colon length/weight, are calculated as follows: % inhibition=(1−(“value for treated group”−“value for control group”/”value for Dextran 4% group”−“value for control group))*100.
The percentages of inhibition are calculated for each days 5, 6 and 7 for each parameter.

Question: With `CCCC/C(C)=C/C=C\[C@H]1CCC(=O)N1CCc1ccc(C(=O)O)cc1` [Example 3, 4-(2-{(2R)-2-[(1Z,3E)-4-methylocta-1,3-dienyl]-5-oxopyrrolidin-1-yl}ethyl)benzoic acid] as the molecule, how does the “improved clinical score, increase compared to non-treated animals” value read?
Answer: The value was 40%.

Question: And the “increased colon weight/length, increase compared to non-treated animals” value?
Answer: Its value is 36%.

Question: What about the “inhibition of loss of body-weight compared to non-treated animals” value of the same molecule?
Answer: The value was 39%.
